Test results: BindingDB's records for doi:10.1016/S1074-5521(00)00052-1 (Northwestern University, 2001)

Biological target: Beta-lactamase (Escherichia coli (strain K12), UniProt P00811)
Assay: Enzyme Inhibition Assay
Settings: pH 7
From the text: Enzyme inhibition assay using AmpC or TEM-1 from escherichia coli.

Sequence of Beta-lactamase (P00811 whole entry): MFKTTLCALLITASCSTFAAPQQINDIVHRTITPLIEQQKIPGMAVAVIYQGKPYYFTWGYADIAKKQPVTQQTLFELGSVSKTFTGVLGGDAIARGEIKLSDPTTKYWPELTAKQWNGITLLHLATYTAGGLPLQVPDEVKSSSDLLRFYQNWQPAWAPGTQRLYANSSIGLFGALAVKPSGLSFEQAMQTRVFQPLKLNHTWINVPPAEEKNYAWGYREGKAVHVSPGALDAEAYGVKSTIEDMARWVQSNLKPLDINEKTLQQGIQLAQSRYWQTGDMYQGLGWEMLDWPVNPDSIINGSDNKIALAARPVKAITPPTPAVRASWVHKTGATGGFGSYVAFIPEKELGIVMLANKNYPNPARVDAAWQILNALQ

Row | Structure (SMILES) | Ki [µM]
1 | O=C(CCl)NCB(O)O [Acylglycineboronic acid, 12] | 0.24
2 | O=C(COc1ccccc1)NCB(O)O [Acylglycineboronic acid, 7] | 0.7
3 | O=CNCB(O)O [Acylglycineboronic acid, 3] | 4.8
4 | CB(O)O [Methylboronic Acid] | 1000
5 | CC(Oc1ccccc1)C(=O)NCB(O)O (stereo unspecified) [Acylglycineboronic acid, 8] | 0.3
6 | O=C(CSc1ccncc1)NCB(O)O [Acylglycineboronic acid, 13] | 0.175
7 | OB(O)O [Boric acid] | 2800
8 | O=C(Cc1ccccc1)NCB(O)O [Acylglycineboronic acid, 6] | 0.57
9 | O=C(Cc1cccs1)NCB(O)O [N-2-THIOPHEN-2-YL-ACETAMIDE BORONIC ACID] | 0.32
10 | CC(=O)NCB(O)O [Acylglycineboronic acid, 5] | 18.5
11 | CCOc1ccc2ccccc2c1C(=O)NCB(O)O [Acylglycineboronic acid, 10] | 0.033
